Reference: patent US12115208B2, “Small-molecule adjuvants for antibiotics to address antibiotic resistance” (HIGH POINT UNIVERSITY, priority 2017, dated 2024)
Several values for one entry are separate records, joined by “and”; a condition that tells them apart may be missing. Equal values may be shown once. Read-outs that look alike come from different tables or passages of the source.

Assays:
[1] = system: S. aureus 43300 (MRSA); assay: Antibiotic repotentiation (antibiotic MIC with/without compound); format: cell-based, Staphylococcus aureus
[2] = system: S. aureus ATCC 29213; assay: as above; format: cell-based, Staphylococcus aureus; conditions: for Oxacillin MIC: ATCC 29213
[3] = system: S. aureus USA300 (MRSA); assay: as above; format: cell-based, Staphylococcus aureus; conditions: for MIC of antibiotic: MRSA USA300
[4] = system: S. aureus NR-49120 (VRSA); assay: as above; format: cell-based, Staphylococcus aureus; conditions: VRSA NR-49120
Description: (§1) The overnight culture was diluted into fresh CAMHB to a concentration of 5×10^5 CFU/ml. […] On the same plate, a standard microdilution MIC with the tested antibiotics and no added compound was also performed to compare the antibiotic MIC in the presence and absence of compound. […] Fold reductions were calculated by dividing the MIC of the antibiotic without compound by the MIC of the antibiotic in the presence of compound.

[5] = system: S. aureus USA100 (MRSA); assay: as above; format: cell-based, Staphylococcus aureus; conditions: for MIC of antibiotic: MRSA USA100
Description: as §1

[6] = system: S. epidermidis 49461; assay: Antibiotic repotentiation (oxacillin MIC with/without compound); format: cell-based, Staphylococcus epidermidis
Description: as §1
Antibiotic potentiation in S. epidermidis was also investigated.

[7] = system: MRSA; assay: Growth curves; format: cell-based, Staphylococcus aureus; conditions: MRSA in CAMHB; for effect on cell density (OD 600 nm) after 24 hours: single treatment: oxacillin 1 μg/mL alone or amoxapine 150 μM alone
Description: The overnight culture was diluted into fresh CAMHB to a concentration of 5×10^5 CFU/ml. The cell suspension (3 mL) was aliquoted into sterile culture tubes and compound was added to achieve the desired concentrations. An untreated aliquot served as the control. 200 μl of each suspension or of the untreated control was aliquoted into a flat-bottomed microtiter plate. The plate was maintained at 37° C. with shaking and absorbance readings (600 nm) were recorded every 30 minutes for 24 hours.
MRSA was grown in cation-adjusted Mueller-Hinton broth (CAMHB). […] The optical density of the cultures at 600 nm was measured every 2 hours for 8 hours and again at 24 hours.

[8] = system: blaI mRNA; assay: RT-qPCR mRNA levels; format: cell-based, Staphylococcus aureus (MRSA)
Description: (§2) Triplicate cultures of each condition were briefly centrifuged and cell pellets were stored at −80° C. Pellets were resuspended in 100 uL of lyphostaphin (1 mg/mL) and incubated at room temperature for 10 minutes. Next, lysates were subjected to a Qiashredder column and RNA was purified with RNeasy columns according to the manufacturer's protocol (Qiagen). An on-column DNase step was also included. Total RNA was quantified and purity was assessed with a Nanodrop spectrophotometer (Thermo Scientific). RNA integrity was visualized by agarose gel electrophoresis using GelRed (Phenix) and a ChemiDoc MP (BioRad).
(§3) 200 ng of total RNA was reverse transcribed using random primers, according to the manufacturer's protocol (BioRad select cDNA synthesis kit). Minus reverse transcriptase controls were prepared for each sample. Next, duplicate qPCR reactions were performed for each cDNA template using SYBR green according to the manufacturer's protocol (BioRad SYBR Green Supermix). Primer sequences are found in Supporting Information. Those that the authors designed used NCBI Primer Blast to specify the annealing temperatures, length, location, and analyze specificity and secondary structure. All reactions were run on a StepOne thermal cycler (Applied Biosystems). Cycling parameters were as follows: 95° C. for 10 minutes, 40 cycles of 95° C. for 15 seconds followed by 60° C. for 1 minute. Specificity of each primer pair was assessed with melt curve analyses and agarose gel electrophoresis. The efficiency of each primer pair was calculated using results from calibration curves generated in Microsoft Excel. Contaminating genomic DNA levels were calculated using the comparative Ct method. Gene expression levels relative to 16S rRNA were calculated using a relative quantification model.^17 Statistical significance was determined by unpaired student's t tests. All calculations were performed using Microsoft Excel.
(§4) See Blazquez, B. et al., “Regulation of the expression of the beta-lactam antibiotic-resistance determinants in methicillin-resistant Staphylococcus aureus (MRSA),” Biochemistry 2014, 53 (10), 1548; Staude, M. W. et al., “Investigation of signal transduction routes within the sensor/transducer protein BlaR1 of Staphylococcus aureus,” Biochemistry 2015, 54 (8), 1600; Thumanu, K., et al., “Discrete steps in sensing of beta-lactam antibiotics by the BlaR1 protein of the methicillin-resistant Staphylococcus aureus bacterium,” Proc Natl Acad Sci USA 2006, 103 (28), 10630, which are incorporated herein by reference in their entireties.

[9] = system: blaZ mRNA; assay: RT-qPCR mRNA levels; format: cell-based, Staphylococcus aureus (MRSA)
Description: as §2, §3, §4

[10] = target: β-lactamase, MSSA ATCC 29213 (Staphylococcus aureus, UniProt P00807); conditions: MSSA 29213
Sequence of β-lactamase, MSSA ATCC 29213 (P00807 25-281): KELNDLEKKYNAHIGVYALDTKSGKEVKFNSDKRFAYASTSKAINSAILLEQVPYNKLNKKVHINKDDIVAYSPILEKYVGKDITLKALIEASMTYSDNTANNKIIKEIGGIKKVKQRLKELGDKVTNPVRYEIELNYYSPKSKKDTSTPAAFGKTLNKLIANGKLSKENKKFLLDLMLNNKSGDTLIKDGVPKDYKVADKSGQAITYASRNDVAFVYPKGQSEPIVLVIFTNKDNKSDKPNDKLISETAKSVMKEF
Description: For whole cell nitrocefin assays, bacteria was cultured overnight in CAMHB at 37° C. with shaking. The overnight culture was subcultured 1:100 in fresh CAMHB and grown at 37° C. with shaking to mid-log phase (OD600=0.4-0.6). The culture was adjusted to an OD600 of 0.2 in fresh CAMHB. […] These suspensions were incubated at 37° C. with shaking for thirty minutes. The suspensions were adjusted to an OD600 of 0.132 in phosphate buffered saline (PBS, pH 7, 900 μl). A 100 μl of a stock solution of nitrocefin (500 mg/ml in PBS) was added to these suspensions and mixed. The nitrocefin-bacteria suspensions (100 μl) were added to the wells of a clear 96-well polystyrene microtiter plate. A 50 mg/ml solution of nitrocefin in PBS served as a blank. Using BioTek Synergy H1 microplate reader maintained at 37° C., the absorbance at 486 nm was recorded every 5 minutes for 2 hours.
The known β-lactamase inhibitor sulbactam was used as a positive control. Again, all assays were run in triplicate and each data point represents the average of three data points.

[11] = system: S. aureus ATCC 29213; assay: Minimum inhibitory concentration, broth microdilution; format: cell-based; conditions: Staphylococcus aureus, ATCC29213; compound alone; S. aureus ATCC 29213; CAMHB, 18 h; read-out: MIC
Description: (§5) The compounds were then analyzed for antibiotic repotentiation activity. […] The tested strains included USA300, which is a common and particularly virulent strain of community-acquired MRSA.

[12] = system: S. aureus ATCC 43300 (MRSA); assay: as above; format: cell-based, Staphylococcus aureus; conditions: Staphylococcus aureus; compound alone; S. aureus ATCC 43300 (MRSA); CAMHB, 18 h; read-out: MIC
Description: as §5

[13] = system: S. aureus USA300 (MRSA); assay: as above; format: cell-based, Staphylococcus aureus; conditions: Staphylococcus aureus; compound alone; S. aureus USA300 (MRSA); CAMHB, 18 h; read-out: MIC
Description: as §5

[14] = system: mecA mRNA; format: cell-based, Staphylococcus aureus (MRSA); conditions: co-treatment amoxapine and oxacillin vs oxacillin alone
Description: as §2
(§6) 200 ng of total RNA was reverse transcribed using random primers, according to the manufacturer's protocol (BioRad select cDNA synthesis kit). Minus reverse transcriptase controls were prepared for each sample. […] Specificity of each primer pair was assessed with melt curve analyses and agarose gel electrophoresis. The efficiency of each primer pair was calculated using results from calibration curves generated in Microsoft Excel. Contaminating genomic DNA levels were calculated using the comparative Ct method. Gene expression levels relative to 16S rRNA were calculated using a relative quantification model.^17 Statistical significance was determined by unpaired student's t tests. […]

[15] = system: mecI mRNA; format: cell-based, Staphylococcus aureus (MRSA); conditions: co-treatment amoxapine and oxacillin vs oxacillin alone
Description: as §2, §6

[16] = system: pbp2 mRNA; assay: RT-qPCR mRNA levels; format: cell-based, Staphylococcus aureus (MRSA); conditions: co-treatment amoxapine and oxacillin vs oxacillin alone
Description: as §2, §6

[17] = oxacillin treatment, relative to 16S rRNA
[18] = treatment alone, compared to untreated cells
[19] = co-treatment amoxapine and oxacillin vs oxacillin alone

Question: With `Cc1onc(-c2ccccc2)c1C(=O)N[C@@H]1C(=O)N2[C@@H]1SC(C)(C)[C@@H]2C(=O)O` [Oxacillin] as the molecule, how does the MIC of antibiotic ([1]; +Amoxapine (150 μM), S. aureus 43300 (MRSA)) read?
Answer: Its MIC of antibiotic is 2 µg/mL.

Question: And the MIC of antibiotic ([1]; +Loratadine 25 μM, MRSA 43300)?
Answer: The MIC of antibiotic was 4 µg/mL.

Question: What about the MIC of antibiotic ([1]; +Loratadine 50 μM, MRSA 43300) of the same molecule?
Answer: The MIC of antibiotic was 1 µg/mL.

Question: What about the MIC of antibiotic ([1]; antibiotic alone, no compound, S. aureus 43300 (MRSA)) of the same molecule?
Answer: Its MIC of antibiotic is 32 µg/mL and 16 µg/mL.

Question: What about the MIC of antibiotic ([1]; antibiotic alone, S. aureus ATCC 43300 (MRSA)) of the same molecule?
Answer: Its MIC of antibiotic is 32 µg/mL.

Question: What about the MIC ([2]; Staphylococcus aureus, ATCC29213, read-out: Oxacillin MIC) of the same molecule?
Answer: The MIC was 0.25 µg/mL.

Question: What about the MIC of antibiotic ([3]; +Loratadine 25 μM) of the same molecule?
Answer: Its MIC of antibiotic is 2 µg/mL.

Question: What about the MIC of antibiotic ([3]; +Loratadine 50 μM) of the same molecule?
Answer: The MIC of antibiotic was 0.5 µg/mL.

Question: And the MIC ([3]; Staphylococcus aureus, read-out: Oxacillin MIC, oxacillin alone, S. aureus USA300 (MRSA))?
Answer: Its MIC is 32 µg/mL.

Question: What about the MIC of antibiotic ([3]; antibiotic alone) of the same molecule?
Answer: The MIC of antibiotic was 32 µg/mL.

Question: And the “Oxacillin MIC” value ([3]; oxacillin alone, S. aureus USA300 (MRSA))?
Answer: Its value is 64 µg/mL.

Question: What about the MIC of antibiotic ([4]; +Loratadine 25 μM) of the same molecule?
Answer: Its MIC of antibiotic is 64 µg/mL.

Question: And the MIC of antibiotic ([4]; +Loratadine 50 μM)?
Answer: The MIC of antibiotic was 16 µg/mL.

Question: What about the MIC of antibiotic ([5]; +Loratadine 50 μM) of the same molecule?
Answer: Its MIC of antibiotic is 0.25 µg/mL.

Question: And the MIC ([5]; Staphylococcus aureus, read-out: Oxacillin MIC)?
Answer: The MIC was 512 µg/mL.

Question: What about the MIC of antibiotic ([5]; antibiotic alone) of the same molecule?
Answer: Its MIC of antibiotic is 256 µg/mL.

Question: What about the MIC ([6]; Staphylococcus epidermidis, 49461, 18 h, read-out: Oxacillin MIC) of the same molecule?
Answer: The MIC was 16 µg/mL.

Question: What about the “effect on cell density (OD 600 nm) after 24 hours” value [7] of the same molecule?
Answer: The value was “negligible effect”.

Question: And the “increase in blaI levels” value [8, 17]?
Answer: Its value is 13 fold.

Question: What about the “increase in blaZ mRNA” value [9, 17] of the same molecule?
Answer: The value was 38 fold.

Question: And the “effect on β-lactamase activity (nitrocefin hydrolysis)” value [10, 18]?
Answer: The value was “little effect”.

Question: What does the source list for `Clc1ccc2c(c1)C(N1CCNCC1)=Nc1ccccc1O2` [Amoxapine, 2-chloro-11-(1-piperazinyl)dibenz[b,f][1,4]oxazepine]?
Answer: MIC [11]: 600 µM; MIC [12]: 600 µM; MIC [13]: 600 µM; Oxacillin MIC ([2]; +75 μM compound): 0.25 µg/mL; Oxacillin MIC ([2]; +150 μM compound): 0.125 µg/mL; Oxacillin MIC ([3]; +75 μM compound, USA300 (MRSA)): 16 µg/mL; Oxacillin MIC ([3]; +150 μM compound, USA300 (MRSA)): 2 µg/mL; Oxacillin MIC ([6]; +75 μM compound, S. epidermidis 49461): 4 µg/mL; effect on cell density (OD 600 nm) throughout the experiment ([7]; combination of oxacillin (1 μg/mL) and amoxapine (150 μM), 24 h): potent inhibition of cell density; effect on cell density (OD 600 nm) after 24 hours [7]: negligible effect; reduction in blaI levels [8, 19]: 2.2 fold; effect on mRNA levels ([9]; amoxapine alone vs untreated control (data not shown)): no significant effect; reduction in blaZ levels [9, 19]: 3.0 fold; reduction in mecA mRNA levels [14]: 4.5 fold; reduction in mecI mRNA levels [15]: 3.0 fold; effect on mRNA levels of pbp2 [16]: no significant effect; effect on β-lactamase activity (nitrocefin hydrolysis) ([10]; oxacillin in combination with amoxapine): little effect; effect on β-lactamase activity (nitrocefin hydrolysis) [10, 18]: no effect
